Source: article PMC6726534 (Biotechnology and bioengineering, 2019)
Converted amounts (≈) assume the structure as drawn. Where a SMILES comes first, the peptide text is derived from it.

Key:
Assay type in all cases: cell-based
[1] = test system: E. coli FVEC 964; details: FVEC 964, 1 h
[2] = test system: Salmonella enterica serovar Enteritidis MH91989; details: serovar Enteritidis MH91989, 1 h
[3] = test system: Salmonella enterica serovar Typhimurium ATCC SL1344; details: ATCC SL1344, 1 h
[4] = test system: Salmonella enterica serovar Newport; details: 1 h
[5] = test system: Salmonella enterica serovar Tennessee; details: 1 h
[6] = test system: Salmonella Infantis #129 B; details: 1 h
[7] = test system: E. coli JW0013; details: JW0013, 1 h
[8] = test system: E. coli FVEC 638; details: FVEC 638, 1 h
[9] = test system: E. coli PUTI 379; details: PUTI 379, 1 h
[10] = test system: E. coli JJ2489; details: JJ2489, 1 h
[11] = test system: E. coli J2210; details: J2210, 1 h
[12] = test system: MDA-MB-231 human breast adenocarcinoma cells; experiment: Cytotoxicity assay; details: 10 μmol/L peptide, 24 h, MTT assay, duplicate, normalized to PBS
[13] = test system: A431 human epidermoid carcinoma cells; experiment: Cytotoxicity assay; details: 10 μmol/L peptide, 24 h, MTT assay, duplicate, normalized to PBS

SMILES	MIC [1]	MIC [2]	MIC [3]	MIC [4]	MIC [5]	MIC [6]	MIC [7]	MIC [8]	MIC [9]	MIC [10]	MIC [11]	toxicity towards MDA-MB-231 [12]	toxicity to A431 cells [13]
CC(C)C[C@H](NC(=O)[C@H](CCCNC(=N)N)NC(=O)[C@@H]1CCCN1C(=O)[C@H](Cc1c[nH]cn1)NC(=O)[C@@H]1CCCN1C(=O)[C@@H]1CCCN1C(=O)[C@H](CCCNC(=N)N)NC(=O)[C@@H]1CCCN1C(=O)[C@H](CCC(N)=O)NC(=O)[C@@H]1CCCN1C(=O)[C@H](CCCCN)NC(=O)[C@H](Cc1ccc(O)cc1)NC(=O)[C@@H](NC(=O)[C@@H]1CCCN1C(=O)[C@H](CCCCN)NC(=O)[C@H](CC(N)=O)NC(=O)[C@H](CC(N)=O)NC(=O)CN)C(C)C)C(=O)O [Api_R4K/I8K] (H-GNNKPVYKPQPRPPHPRL-OH)	0.048 ± 0.011 µM (≈ 0.101 µg/mL)	0.031 ± 0.014 µM (≈ 0.065 µg/mL)	0.034 ± 0.017 µM (≈ 0.0712 µg/mL)	0.024 ± 0.006 µM (≈ 0.0503 µg/mL)	0.024 ± 0.006 µM (≈ 0.0503 µg/mL)	0.024 ± 0.006 µM (≈ 0.0503 µg/mL)	0.012 ± 0.003 µM (≈ 0.0251 µg/mL)	0.048 ± 0.011 µM (≈ 0.101 µg/mL)	0.048 ± 0.011 µM (≈ 0.101 µg/mL)	0.031 ± 0.014 µM (≈ 0.065 µg/mL)	0.034 ± 0.017 µM (≈ 0.0712 µg/mL)		
CC[C@H](C)[C@H](NC(=O)[C@@H]1CCCN1C(=O)[C@H](CCCNC(=N)N)NC(=O)[C@@H]1CCCN1C(=O)[C@@H]1CCCN1C(=O)[C@@H](NC(=O)[C@@H]1CCCN1C(=O)[C@H](CCCNC(=N)N)NC(=O)[C@@H]1CCCN1C(=O)[C@H](CC(C)C)NC(=O)[C@H](Cc1ccc(O)cc1)NC(=O)[C@H](CO)NC(=O)CNC(=O)[C@H](CCCCN)NC(=O)[C@H](CC(=O)O)NC(=O)[C@@H](N)C(C)C)[C@@H](C)O)C(=O)N[C@@H](Cc1ccc(O)cc1)C(=O)N[C@@H](CC(N)=O)C(=O)N[C@@H](CCCNC(=N)N)C(=O)N[C@@H](CC(N)=O)C(=O)O [Pyr_WT, reference compound] (H-VDKGSYLPRPTPPRPIYNRN-OH)												None of these PrAMPs exhibited any toxicity	no toxicity
CC(C)C[C@H](NC(=O)[C@H](CCCNC(=N)N)NC(=O)[C@@H]1CCCN1C(=O)[C@H](Cc1c[nH]cn1)NC(=O)[C@@H]1CCCN1C(=O)[C@@H]1CCCN1C(=O)[C@H](CCCNC(=N)N)NC(=O)[C@@H]1CCCN1C(=O)[C@H](CCC(N)=O)NC(=O)[C@@H]1CCCN1C(=O)[C@H](CCCNC(=N)N)NC(=O)[C@H](Cc1ccc(O)cc1)NC(=O)[C@@H](NC(=O)[C@@H]1CCCN1C(=O)[C@H](CCCCN)NC(=O)[C@H](CC(N)=O)NC(=O)[C@H](CC(N)=O)NC(=O)CN)C(C)C)C(=O)O [Api_R4K/I8R] (H-GNNKPVYRPQPRPPHPRL-OH)	0.048 ± 0.011 µM (≈ 0.102 µg/mL)	0.031 ± 0.014 µM (≈ 0.0658 µg/mL)	0.034 ± 0.017 µM (≈ 0.0722 µg/mL)	0.017 ± 0.009 µM (≈ 0.0361 µg/mL)	0.024 ± 0.006 µM (≈ 0.051 µg/mL)	0.024 ± 0.006 µM (≈ 0.051 µg/mL)	0.012 ± 0.003 µM (≈ 0.0255 µg/mL)	0.048 ± 0.011 µM (≈ 0.102 µg/mL)	0.048 ± 0.011 µM (≈ 0.102 µg/mL)	0.034 ± 0.017 µM (≈ 0.0722 µg/mL)	0.034 ± 0.017 µM (≈ 0.0722 µg/mL)		
CC[C@H](C)[C@H](NC(=O)[C@H](Cc1ccc(O)cc1)NC(=O)[C@@H](NC(=O)[C@@H]1CCCN1C(=O)[C@H](CCCNC(=N)N)NC(=O)[C@H](CC(N)=O)NC(=O)[C@H](CC(N)=O)NC(=O)CN)C(C)C)C(=O)N1CCC[C@H]1C(=O)N[C@@H](CCC(N)=O)C(=O)N1CCC[C@H]1C(=O)N[C@@H](CCCNC(=N)N)C(=O)N1CCC[C@H]1C(=O)N1CCC[C@H]1C(=O)N[C@@H](Cc1c[nH]cn1)C(=O)N1CCC[C@H]1C(=O)N[C@@H](CCCNC(=N)N)C(=O)N[C@@H](CC(C)C)C(=O)O [Api_WT, reference compound] (H-GNNRPVYIPQPRPPHPRL-OH)	0.048 ± 0.011 µM (≈ 0.101 µg/mL)	0.048 ± 0.011 µM (≈ 0.101 µg/mL)	0.048 ± 0.011 µM (≈ 0.101 µg/mL)	0.031 ± 0.014 µM (≈ 0.0654 µg/mL)	0.048 ± 0.011 µM (≈ 0.101 µg/mL)	0.048 ± 0.011 µM (≈ 0.101 µg/mL)	0.024 ± 0.006 µM (≈ 0.0506 µg/mL)	0.048 ± 0.011 µM (≈ 0.101 µg/mL)	0.048 ± 0.011 µM (≈ 0.101 µg/mL)	0.031 ± 0.014 µM (≈ 0.0654 µg/mL)	0.048 ± 0.011 µM (≈ 0.101 µg/mL)		
CC[C@H](C)[C@H](NC(=O)[C@@H]1CCCN1C(=O)[C@H](CCCCN)NC(=O)[C@@H]1CCCN1C(=O)[C@@H]1CCCN1C(=O)[C@@H](NC(=O)[C@@H]1CCCN1C(=O)[C@H](CCCNC(=N)N)NC(=O)[C@@H]1CCCN1C(=O)[C@H](CCCNC(=N)N)NC(=O)[C@H](Cc1ccc(O)cc1)NC(=O)[C@H](CO)NC(=O)CNC(=O)[C@H](CCCCN)NC(=O)[C@H](CC(=O)O)NC(=O)[C@@H](N)C(C)C)[C@@H](C)O)C(=O)N[C@@H](Cc1ccc(O)cc1)C(=O)N[C@@H](CC(N)=O)C(=O)N[C@@H](CCCNC(=N)N)C(=O)N[C@@H](CC(N)=O)C(=O)O [Pyr_L7R/R14K] (H-VDKGSYRPRPTPPKPIYNRN-OH)												None of these PrAMPs exhibited any toxicity	no toxicity
